Test results from US20090018136A1, “METHODS AND COMPOSITIONS FOR THE TREATMENT OF VASCULAR DISEASE” (priority 2005, published 2009).

Legend:
brachial artery = assay: Study 2: brachial artery flow-mediated and nitroglycerin-mediated vasodilation; type: in vivo, human
Method: Brachial artery endothelium-dependent and -independent function was measured using ultrasound, at baseline, after 8 weeks of BH4 treatment, and 1 week after discontinuation of therapy. The technique was carried out as described in Prasad et al., Circulation, 2000. 101(20): p. 2349-54. Briefly, using an 11 MHz high resolution ultrasound transducer (Acuson Inc) in a temperature-controlled room, brachial diameter was measured above the antecubital fossa in the non-dominant arm. Flow-mediated vasodilation (FMD) was measured by inflating a BP cuff on the forearm to >200 mm Hg for 5 minutes, deflating rapidly, and measuring brachial diameter at 1 minute after onset of hyperemia. For all measurements three diameters were measured on three separate end-diastolic frames and averaged. To obtain the maximal brachial artery dilation that represents FMD the following equation was used: (average diameter with hyperemia−average baseline diameter)÷average baseline diameter X 100. To measure the endothelium-independent vasodilator response, subjects were given sublingual nitroglycerin 0.4 mg and the brachial diameter was measured as above after 5 minutes. To obtain endothelium-independent vasodilation the following equation was used: (average diameter post nitroglycerin-average baseline diameter)÷average baseline diameter X 100. For both study 1 and study 2, the primary end point after statistical analysis was a reduction of systolic, mean and diastolic BP during BH4 therapy. Secondary end points included improvement of endothelial function as FMD. Linear mixed effects models for repeated measures data were used to analyze change in BP from baseline to end of treatment period and differences in change between 100 mg and 200 mg dose groups. A quadratic term for week was included in the model to account for non-linear trends over the treatment period. Dose, week and week squared were the main effect terms in the model; dose by week and dose by week squared were the interaction terms in the model. Significant interaction terms indicate a difference in the pattern of change between the two dose groups. FMD data was analyzed using the two-tailed student t-test. […] In study 2, brachial artery endothelium-dependent and independent function was measured, as described above, at the end of the 2-week vitamin C run-in period, at the end of 4 weeks of oral BH4 therapy, and 4 weeks after discontinuation of BH4.

[1] = tested on: subjects with sickle cell disease; assay: Phase 2a sickle cell disease study: endothelial function by EndoPAT; type: in vivo, human; details: preliminary findings, sickle cell disease patients treated with BH4
Method: This Phase 2a multicenter, open-label, dose-escalation study is designed to assess the safety and biologic activity of once daily (for 2.5, 5, and 10 mg/kg/day doses) or twice daily (for the 20 mg/kg/day dose) oral administration of 4 escalating doses of 6R-BH4 to subjects with SCD. During an optional extension phase, the study will assess the safety, tolerability, and efficacy of extended treatment with 6R-BH4. Subjects will receive oral, once-daily (for 2.5, 5, and 10 mg/kg/day) or twice-daily (for 20 mg/kg/day) doses of 6R-BH4 during a 16-week dose-escalation phase, with dose levels increasing within subjects every 4 weeks, as follows: 2.5, 5, 10, and 20 mg/kg/day. Prior to dose escalation, the each subject will be evaluated with respect to safety profile during the previous dose level, using predefined parameters. […] Endothelial function will be evaluated using Doppler echocardiogram (DE), peripheral arterial tonometry (EndoPAT), and exhaled nitric oxide (NO). The symptoms of SCD (frequency of sickle cell crises and vaso-occlusive crises), along with changes in the 6-minute-walk (MW) test, will be monitored. […] The number of tablets will be determined by the dose of sapropterin dihydrochloride, rounded to the nearest 100 mg. […]

cardiac allograft = details: cited from earlier work
coronary vessel = details: in vivo; cited from earlier work
forearm blood flow = details: patients with diabetes or hypercholesterolemia but not normal subjects; cited from earlier work

C[C@H](O)[C@H](O)[C@H]1CNc2nc(N)[nH]c(=O)c2N1 [BH4, tetrahydrobiopterin]
FMD (brachial artery; Study 2, 100 mg b.i.d., after therapy, 5.3±2.5% before, p=0.55, no significant change): 6.2±3.5% | FMD (brachial artery; Study 2, 200 mg b.i.d., after 4 weeks of therapy, 3.7±3% at start, p=0.016, n=7): 7.1±4.9% | FMD (brachial artery; Study 2, 200 mg b.i.d., one month after discontinuation, p=0.6 compared to baseline): 3.2±1.1% | change in nitroglycerin-mediated, endothelium-independent vasodilation (brachial artery; Study 2, either group): no significant change | endothelial function as measured by the EndoPAT device [1]: improvement | mean graft survival time (cardiac allograft; BH4 50 mg/kg every 8 hours intramuscularly for 7 days, untreated allografts 7.1±0.7 days, p<0.05): 12.3 ± 4.9 days | allograft survival (cardiac allograft; allogeneic mouse heart transplantation): significantly prolonged | Nitrate and nitrite concentrations in plasma (cardiac allograft; day 6, also elevated in untreated animals): elevated | coronary vessel flow (coronary vessel): increased | NO-mediated effects on forearm blood flow (forearm blood flow): augment
